Laboratory results taken from patent US4122184A, “Benzimidazole insecticides” (priority 1977, dated 1978).

Experiments:
Confused Flour Beetle = assay: Field trial (first summer), topical; type: in vivo; conditions: .078125 μg/μl
Procedure: (§1) In a variation of the above test, 1 microliter of a test solution containing a predetermined number of micrograms of benzimidazole was applied directly to larvae or adult insects.
(§2) During the previous summer similar field trials were conducted employing the same tests as heretofore but with some additional species of insects not included in the later tests. The results listed below are for tests in which an insect mortality was established by a given application route and at a given concentration in a particular test. The same 0 - 9 scoring system is used as is the designation of compounds by alphabetical symbols.

Boll Weevil [1] = assay: Boll Weevil Test; type: in vivo, Anthonomus grandis (Coleoptera); conditions: 48 h
Description: The procedure is identical to that employed for the Mexican bean beetle and the Southern armyworm, except that 10 adult boll weevils are placed on cotton leaves that have been dipped into formulations of the test compounds. The same rating scale is used.

Alfalfa Weevil Larvae [2] = assay: Field trial, topical application; type: in vivo
Procedure: (§3) The results are read at 24, 48, and 72 hours when applicable. The rating scale is 0 to 9 where 0 = 0-10 percent and 9 = 91-100 percent mortality.
as §1
(§4) Using the above methods, field trials were carried out against species of 5 orders of insects. The results, which are summarized in the following tables, give the average mortality for the particular insect with a given benzimidazole for each concentration employed. […] These tables contain all results obtained during the summer trials.

Alfalfa Weevil Larvae [3] = assay: Field trial, contact poison test; type: in vivo
Description: (§5) Infested plants are placed in 6 oz. prescription bottles filled with water to keep them from wilting. Cellucotton is wrapped around the plant stem and squeezed into the bottle neck to prevent the insects from drowning.
(§6) A DeVilbiss Special Atomizer (5004) is used at 10 psi to spray the test plant with different concentrations of compounds. The atomizer is held at arm's length to prevent blowing the insects off the host plant. After treating, the bottles are placed on a table covered with brown wrapping paper to catch the dead insects as they drop from the plant. The plants are spaced so the leaves or plants are not touching one another.
as §3, §4

[4] = test system: Southern Corn Rootworm Adults; assay: Field trial, contact poison test; type: in vivo
Description: as §5, §6, §3, §4

[5] = test system: Potato Flea Beetle Adults; assay: Field trial, contact poison test; type: in vivo
Description: as §5, §6, §3, §4

Alfalfa Weevil Larvae [6] = assay: Field trial, stomach poison test; type: in vivo
Procedure: (§7) Leaves from the infested plant are treated with different concentrations of the test compounds, either by spraying with a DeVilbiss Special Atomizer (5004) at 10 psi or by dipping the leaves in solutions containing the compound. The leaves are then allowed to air dry.
(§8) After the leaves have dryed, they are placed in plastic petri dishes (100 × 25 mm), then the insects are counted out into each dish, five or ten insects per dish depending on the number of insects available. There are one or two replicates and usually two or three rates with each compound. Mortality results are taken at 24, 48 and 72 hours. The rating scale is 0 to 9.
as §4

[7] = test system: Potato Flea Beetle Adults; assay: Field trial, stomach poison test; type: in vivo
Procedure: as §7, §8, §4

Meadow Spittlebug = assay: Field trial, stomach poison test; type: in vivo
Procedure: as §7, §8, §4

Two-spotted Spider Mite = Two-spotted Spider Mite test; type: in vivo, Tetranychus urticae (Acarina); conditions: 48 h
Procedure: The procedure in this test is the same as that in the previous aphid test, except that about 100 two-spotted spider mites from a stock colony raised on squash plants are transferred to a cut squash cotyledon. The mortality is estimated 48 hours after spraying. The same rating scale is used.

[8] = test system: Tarnished Plant Bug Adults; assay: Field trial, stomach poison test; type: in vivo; design: key: mortality rating on a 0 to 9 scale
Procedure: as §7, §8, §4

[9] = test system: Striped Cucumber Beetle Adults; assay: Field trial, stomach poison test; type: in vivo; design: key: mortality rating on a 0 to 9 scale
Procedure: as §7, §8, §4

[10] = test system: Southern Corn Rootworm Adults; assay: Field trial, stomach poison test; type: in vivo; design: key: mortality rating on a 0 to 9 scale
Procedure: as §7, §8, §4

[11] = test system: Unidentified Green Leafhopper; assay: Field trial, stomach poison test; type: in vivo; design: key: mortality rating on a 0 to 9 scale
Procedure: as §7, §8, §4

Mosquito Larvae = assay: Mosquito larvae test (dip test); type: in vivo, Aedes aegypti; conditions: 48 h
Procedure: Aedes aegypti larvae 5 days old are allowed to feed on fresh food for at least 3 hours previous to being placed on test. Larvae are then removed from the rearing pans by pouring on a 20 mesh screen, washing with deionized water, and pooling in a 6-inch white enameled sauce pan.
Twenty larvae are placed in a 1 oz. paper cup containing 25 ml. of deionized water.
Test chemicals are dissolved in a suitable solvent and pipetted under the surface of 225 ml. of deionized water in one pint wide-mouthed Mason jar test containers and stirred. A cup containing 20 larvae in 25 ml. of water is then added. […]
Results are determined 48 hours later by counting the dead and moribund larvae. […] Moribund larvae are those that are capable of limited, or poorly coordinated, locomotion in a sluggish manner.
Live larvae respond normally and actively.

Milkweed Bug = Milkweed Bug Test; type: in vivo, Oncopeltis fasciatus (Hemiptera); conditions: 100 ppm, 48 h
Procedure: Ten adult milkweed bugs are chilled and placed in a test cage. The cages containing the bugs are sprayed with 5 ml. of a test formulation containing a pre-determined amount of the insecticide, using a DeVilbiss atomizer at 10 psi held 33 inches from the top of the cage. After the cage has been allowed to dry, the bugs are fed and watered for 48 hours. A formulation containing 500 ppm of malathion is used as a reference standard and two unsprayed cages are kept as controls. Mortality counts are made 48 hours after spraying. Moribund adults are considered dead. The same rating scale is employed as before.

Mexican Bean Beetle = assay: Field trial (first summer), topical; type: in vivo, Epilachna varivestis; conditions: .25 μg/μl
Procedure: as §1, §2

Yellow Mealworm Larvae = assay: Field trial, topical application; type: in vivo; design: key: 0 = 0-10% mortality, 9 = 91-100% mortality (0-9 scale)
Procedure: as §3, §1, §4

Boll Weevil [12] = assay: Field trial (first summer), topical; type: in vivo, Anthonomus grandis; conditions: .078125 μg/μl
Procedure: as §1, §2

Squash Bug Adults = assay: Field trial, contact poison test; type: in vivo; design: key: 0-9 rating: 0 = 0-10% mortality, 9 = 91-100% mortality
Description: as §5, §6, §3, §4

Meadow Grasshopper = assay: Field trial (first summer), contact; type: in vivo; conditions: 125 ppm
Description: as §5, §6, §3, §2

Differential Grasshopper = assay: Field trial (first summer), contact; type: in vivo; conditions: 125 ppm
Description: as §5, §6, §3, §2

Buffalo Tree Hopper = assay: Field trial (first summer), contact; type: in vivo; conditions: 125 ppm
Description: as §5, §6, §3, §2

Picnic Beetle [13] = assay: Field trial (first summer), topical; type: in vivo; conditions: .078125 μg/μl
Procedure: as §1, §2

Picnic Beetle [14] = assay: Field trial (first summer), contact; type: in vivo; conditions: 250 ppm
Description: as §5, §6, §3, §2

Milkweed Beetle = assay: Field trial (first summer), contact; type: in vivo; conditions: 125 ppm
Description: as §5, §6, §3, §2

Asparagus Beetles Adults [15] = assay: Field trial, contact poison test; type: in vivo
Description: as §5, §6, §3, §4

Asparagus Beetles Adults [16] = assay: Field trial, stomach poison test; type: in vivo
Procedure: as §7, §8, §4

Picnic Beetle [17] = assay: Field trial (first summer), stomach; type: in vivo; conditions: 250 ppm
Procedure: as §7, §8, §2

With O=[N+]([O-])c1cc(C(F)(F)F)cc2c1nc(C(F)(F)F)n2S(=O)(=O)c1ccccc1 [F, 2,6-bis(trifluoromethyl)-4-nitro-1-phenylsulfonylbenzimidazole] the insect mortality rating (Confused Flour Beetle) was 9 (91-100 percent mortality), the mortality rating (Boll Weevil [1]; 25 ppm) was 7.5 and the mortality rating (Boll Weevil [1]; 50 ppm) was 6.5. It also gave a mortality rating (Boll Weevil [1]; 250 ppm) of 8.5, an average mortality rating (Alfalfa Weevil Larvae [2]; 0.03 μg/μl) of 1 and an average mortality rating (Alfalfa Weevil Larvae [2]; 0.07 μg/μl) of 1. It also gave an average mortality rating (Alfalfa Weevil Larvae [2]; 0.1 μg/μl) of 3, an average mortality rating (Alfalfa Weevil Larvae [3]; 500 ppm) of 8 and an average mortality rating (Alfalfa Weevil Larvae [3]; 750 ppm) of 8. It also gave an average mortality rating (Alfalfa Weevil Larvae [3]; 1000 ppm) of 8, an average mortality rating ([4]; 25 ppm) of 2 and an average mortality rating ([4]; 50 ppm) of 5. For the same compound, the average mortality rating ([4]; 100 ppm) was 9 (91-100 percent mortality), the average mortality rating ([5]; 10 ppm) was 8 and the average mortality rating ([5]; 25 ppm) was 8. The average mortality rating ([5]; 50 ppm) was 9 (91-100 percent mortality), the average mortality rating (Alfalfa Weevil Larvae [6]; 125 ppm) was 1 and the average mortality rating (Alfalfa Weevil Larvae [6]; 250 ppm) was 2. For the same compound, the average mortality rating (Alfalfa Weevil Larvae [6]; 500 ppm) was 7, the average mortality rating ([7]; 10 ppm) was 9 (91-100 percent mortality) and the average mortality rating ([7]; 25 ppm) was 9 (91-100 percent mortality). For the same compound, the average mortality rating ([7]; 50 ppm) was 9 (91-100 percent mortality), the average mortality rating (Meadow Spittlebug; 10 ppm) was 0 (0-10 percent) and the average mortality rating (Meadow Spittlebug; 25 ppm) was 1. For the same compound, the average mortality rating (Meadow Spittlebug; 50 ppm) was 7, the mortality rating (Two-spotted Spider Mite; 1 ppm) was 6.3 and the mortality rating (Two-spotted Spider Mite; 5 ppm) was 7.5. It also gave a mortality rating (Two-spotted Spider Mite; 10 ppm) of 6.8, an average mortality rating ([8]; 10 ppm) of 4 and an average mortality rating ([8]; 25 ppm) of 4. For the same compound, the average mortality rating ([8]; 50 ppm) was 2, the average mortality rating ([9]; 10 ppm) was 0 (0-10 percent) and the average mortality rating ([9]; 25 ppm) was 3. The average mortality rating ([9]; 50 ppm) was 3, the average mortality rating ([10]; 25 ppm) was 3 and the average mortality rating ([10]; 50 ppm) was 4. It also gave an average mortality rating ([10]; 100 ppm) of 5, an average mortality rating ([11]; 10 ppm) of 1 and an average mortality rating ([11]; 25 ppm) of 1. For the same compound, the average mortality rating ([11]; 50 ppm) was 7, the average mortality rating (Mosquito Larvae; 0.010 ppm) was 8 (85-90%) and the average mortality rating (Mosquito Larvae; 0.025 ppm) was 5 (55-60%). For the same compound, the average mortality rating (Mosquito Larvae; 0.05 ppm) was 8 (85-90%), the average mortality rating (Mosquito Larvae; 0.1 ppm) was 9 (95-100%) and the mortality rating (Milkweed Bug) was 7.5. The insect mortality rating (Mexican Bean Beetle) was 9 (91-100 percent mortality), the average mortality rating (Yellow Mealworm Larvae; 0.03 μg/μl) was 2 and the average mortality rating (Yellow Mealworm Larvae; 0.07 μg/μl) was 3. The average mortality rating (Yellow Mealworm Larvae; 0.15 μg/μl) was 5, the insect mortality rating (Boll Weevil [12]) was 9 (91-100 percent mortality) and the average mortality rating (Squash Bug Adults; 125 ppm) was 0 (0-10 percent). The average mortality rating (Squash Bug Adults; 250 ppm) was 4, the average mortality rating (Squash Bug Adults; 500 ppm) was 7 and the average mortality rating (Squash Bug Adults; 750 ppm) was 9 (91-100 percent mortality).

With C=CCOC(=O)n1c(C(F)(F)F)nc2c([N+](=O)[O-])cc(C(F)(F)F)cc21 [K, allyl 2,6-bis(trifluoromethyl)-4-nitro-1-benzimidazolecarboxylate] the insect mortality rating (Meadow Grasshopper) was 9 (91-100 percent mortality), the insect mortality rating (Differential Grasshopper) was 9 (91-100 percent mortality) and the insect mortality rating (Buffalo Tree Hopper) was 9 (91-100 percent mortality). The insect mortality rating (Picnic Beetle [13]) was 9 (91-100 percent mortality), the insect mortality rating (Confused Flour Beetle) was 9 (91-100 percent mortality) and the insect mortality rating (Mexican Bean Beetle) was 9 (91-100 percent mortality). It also gave an average mortality rating (Yellow Mealworm Larvae; 0.03 μg/μl) of 1, an average mortality rating (Yellow Mealworm Larvae; 0.07 μg/μl) of 3 and an average mortality rating (Yellow Mealworm Larvae; 0.15 μg/μl) of 6. For the same compound, the insect mortality rating (Boll Weevil [12]) was 9 (91-100 percent mortality).

In the case of CCN(CC)C(=O)n1c(SC(F)(F)F)nc2c([N+](=O)[O-])cc(SC(F)(F)F)cc21 [S, n,n-diethyl-4-nitro-2,6-bis(trifluoromethyl)thio-1-benzimidazolecarboxamide], the insect mortality rating (Picnic Beetle [14]) was 9 (91-100 percent mortality), the insect mortality rating (Milkweed Beetle) was 9 (91-100 percent mortality) and the insect mortality rating (Picnic Beetle [13]) was 9 (91-100 percent mortality). The average mortality rating (Asparagus Beetles Adults [15]; 10 ppm) was 0 (0-10 percent), the average mortality rating (Asparagus Beetles Adults [15]; 25 ppm) was 8 and the average mortality rating (Asparagus Beetles Adults [15]; 50 ppm) was 5. The average mortality rating ([5]; 10 ppm) was 5, the average mortality rating ([5]; 25 ppm) was 8 and the average mortality rating ([5]; 50 ppm) was 9 (91-100 percent mortality). For the same compound, the average mortality rating (Asparagus Beetles Adults [16]; 5 ppm) was 7, the average mortality rating (Asparagus Beetles Adults [16]; 10 ppm) was 7 and the average mortality rating (Asparagus Beetles Adults [16]; 25 ppm) was 9 (91-100 percent mortality). The average mortality rating ([7]; 10 ppm) was 3, the average mortality rating ([7]; 25 ppm) was 7 and the average mortality rating ([7]; 50 ppm) was 9 (91-100 percent mortality). For the same compound, the average mortality rating ([8]; 25 ppm) was 5, the average mortality rating ([11]; 10 ppm) was 3 and the average mortality rating ([11]; 25 ppm) was 0 (0-10 percent). For the same compound, the average mortality rating ([11]; 50 ppm) was 0 (0-10 percent), the insect mortality rating (Picnic Beetle [17]) was 9 (91-100 percent mortality) and the average mortality rating (Mosquito Larvae; 0.010 ppm) was 4 (45-50%). For the same compound, the average mortality rating (Mosquito Larvae; 0.025 ppm) was 5 (55-60%), the average mortality rating (Mosquito Larvae; 0.05 ppm) was 5 (55-60%) and the average mortality rating (Mosquito Larvae; 0.1 ppm) was 9 (95-100%). The average mortality rating (Yellow Mealworm Larvae; 0.03 μg/μl) was 2, the average mortality rating (Yellow Mealworm Larvae; 0.07 μg/μl) was 4 and the average mortality rating (Yellow Mealworm Larvae; 0.15 μg/μl) was 4.
